One data set in a line: in vivo. To be noted: Wistar, rat, po, 10 mg/kg.
A further data set in a line: in vitro. To be noted: dog, MDCK.

Consider two molecules from ChEMBL document CHEMBL4396919, “Permeability of Cyclic Peptide Macrocycles and Cyclotides and Their Potential as Therapeutics” (ACS Med Chem Lett, 2019).

As usually defined, the bioavailability is dose-corrected exposure relative to a reference, in per cent. A higher bioavailability goes with good availability. For orientation: Papp means a coefficient for how fast a substance crosses the barrier. Higher therefore signals ready permeation.

Molecules are shown by their SMILES. *1 amine or outer side, *2 acyl side, *3 side chain or, on linkers, in order; H or OH if unused. Where a SMILES comes first, the peptide text is derived from it. [ ]: non-standard residue; d: D form. Ile(ψThz) = CC[C@H](C)[C@H](N[*:1])c1nc(C(=O)[*:2])cs1; NMeF = CN[C@@H](Cc1ccccc1)C(=O)O; Tle = CC(C)(C)[C@H](N)C(=O)O

Description for in vitro: Permeability in RRCK cells

The molecule `CC[C@H](C)[C@@H]1NC(=O)[C@@H]2CCCN2C(=O)[C@H](Cc2ccccc2)NC(=O)[C@H](C)NC(=O)c2csc(n2)[C@H]([C@@H](C)CC)NC(=O)[C@@H]2CCCN2C1=O` (cyclo(AFPIP[Ile(ψThz)])) yielded a bioavailability at 8 h in “in vivo” of 7%. The molecule further showed a Papp in the data set “in vitro” of 0.7 ×10⁻⁶ cm/s.
In “in vivo”, `CC[C@H](C)[C@@H]1NC(=O)[C@@H]2CCCN2C(=O)[C@H](Cc2ccccc2)N(C)C(=O)[C@H](C(C)(C)C)NC(=O)c2csc(n2)[C@H]([C@@H](C)CC)NC(=O)[C@@H]2CCCN2C1=O` (cyclo(IP[Ile(ψThz)][Tle][NMeF]P)) gave a bioavailability at 8 h of 21%.
